The results in this text go back to ChEMBL document CHEMBL5137060, “Glioblastoma: Current Status, Emerging Targets, and Recent Advances” (J Med Chem, 2022).

A short description of data set [1]: Growth inhibition of human U373 cells. It is filed as functional. The settings on record: U373 MG.
The subject of data set [2] is Hs 683. Description: Growth inhibition of human Hs 683 cells. It is filed as functional.
In data set [3] the test system is U-87 MG. Nature of the data set: Cytotoxicity against human U87 cells. It is filed as functional, U-87MG ATCC.
Data set [4] relates to T98G. Nature of the data set: Cytotoxicity against human T98G cells. The format is functional.
Data set [5] in a line: Antiproliferative activity against human U-343MG cells assessed as inhibition of cell growth incubated for 72 hrs by MTS assay. It is filed as functional, cell-based. On the technique in general: Tetrazolium dyes change colour on reduction, which living cells bring about.
The nature of data set [6]: Antiproliferative activity against human ANGM-CSS cells assessed as inhibition of cell growth incubated for 72 hrs by MTS assay. The format is functional, cell-based.
Data set [7] has as its system C6. Description: Anticancer activity against rat C6 cells. The format is functional, cell-based.
Data set [8] is described as follows: Cytotoxicity against human glial cells. The format is toxicity, cell-based, Glial cell.
Data set [9] is described as follows: Cytotoxicity against patient derived xenografted D456 cells. It is filed as functional, cell-based. Particulars: Homo sapiens. Background: A xenograft is tissue or cells of one species grown in another, often human tumour cells in immunodeficient mice.
Data set [10] relates to Astrocyte. Nature of the data set: Cytotoxicity against NHA cells. The format is functional, cell-based. The settings on record: Homo sapiens.
Data set [11] can be described thus: Antiproliferative activity against human U-87 MG cells incubated for 72 hrs by MTT assay. It is filed as functional, cell-based, U-87MG ATCC.
Data set [12] has as its system U-251. Description: Cytotoxicity against human U-251 cells. It is filed as functional, cell-based.
Data set [13] in a line: Cytotoxicity against U87MG Human EGFR vIII cells. It is filed as functional, cell-based.
In data set [14] the test system is LN-229. Description: Cytotoxicity against human LN-229 cells assessed as cell viability measured after 48 hrs by countess-II FL Hemocytometer method. The settings on record: LN-229, 48 h. It is filed as functional, cell-based.
The test system of data set [15] is SNB-19. Description: Cytotoxicity against human SNB-19 cells assessed as cell viability measured after 48 hrs by countess-II FL Hemocytometer method. It is filed as functional, cell-based. Particulars: SNB-19, 48 h.
Data set [16] deals with U-251. Nature of the data set: Cytotoxicity against human U251N cells incubated for 24 to 72 hrs by fluorescence microscopic analysis. It is filed as functional, cell-based.
Data set [17] has as its system U-251. Nature of the data set: Inhibition of cell migration of human U251N cells relative to control. The format is functional.
For data set [18], the system named is U-251. Nature of the data set: Cytotoxicity against human U-251MG cells assessed as cell viability. The format is functional, cell-based.
The subject of data set [19] is T98G. Description: Cytotoxicity against human T98G cells assessed as cell viability. The format is functional, cell-based.
Data set [20] can be described thus: Cytotoxicity against human U-87G cells assessed as cell viability. It is filed as functional, cell-based. The settings on record: U87G.
Data set [21] can be described thus: Plasma stability in mouse relative to control. It is filed as ADME, cell-free.
Data set [22] in a line: Plasma stability in monkey relative to control. The format is ADME, cell-free, Macaca mulatta. The settings on record: rhesus monkey.
Data set [23] can be described thus: Plasma stability in human relative to control. The format is ADME, cell-free.
A short description of data set [24]: Antiproliferative activity against human U-87 MG cells assessed as inhibitionof cell growth incubated for 24 to 72 hrs by MTT assay. It is filed as functional, cell-based, U-87MG ATCC.
Data set [25] deals with DBTRG-05MG. Nature of the data set: Cytotoxicity against human DBTRG cells. The format is functional, cell-based.
Data set [26] in a line: Cytotoxicity against human U-87 MG cells. It is filed as functional, cell-based, U-87MG ATCC.
Data set [27] is described as follows: Inhibition of cell migration of patient derived glioblastoma T78 spheroid cell culture treated at 10 uM for 24 hrs by propidium iodide staining method relative to control. The settings on record: Homo sapiens. The format is functional.
Data set [28] in a line: Inhibition of cell migration of patient derived glioblastoma T86 spheroid cell culture treated at 10 uM for 24 hrs by propidium iodide staining method relative to control. The format is functional. Particulars: Homo sapiens.
A short description of data set [29]: Cytotoxicity against patient derived glioblastoma T111 cells. The format is functional. Particulars: Homo sapiens, read-out: LC50 (the source's name).
Data set [30] in a line: Cytotoxicity against patient derived glioblastoma T78 cells. The format is functional. Particulars: Homo sapiens, read-out: LC50 (the source's name).
A short description of data set [31]: Cytotoxicity against patient derived glioblastoma T86 cells. It is filed as functional. The settings on record: Homo sapiens, read-out: LC50 (the source's name).
The target in data set [32] is Translocator protein (Homo sapiens, UniProt P30536). Nature of the data set: Binding affinity to TSPO (unknown origin).
Data set [33] can be described thus: Water solubility of the compound. The format is physicochemical.
Data set [34] has as its system U-251. Nature of the data set: Cytotoxicity against human U-251 cells assessed cell growth inhibition incubated for 48 hrs by CCK8 assay. It is filed as functional, cell-based. Particulars: U-251, 48 h.
The nature of data set [35]: Cytotoxicity against human 091214 cells assessed cell growth inhibition incubated for 48 hrs by CCK8 assay. It is filed as functional, cell-based. Particulars: Homo sapiens, 091214, 48 h.

Chain of Translocator protein (P30536 whole entry): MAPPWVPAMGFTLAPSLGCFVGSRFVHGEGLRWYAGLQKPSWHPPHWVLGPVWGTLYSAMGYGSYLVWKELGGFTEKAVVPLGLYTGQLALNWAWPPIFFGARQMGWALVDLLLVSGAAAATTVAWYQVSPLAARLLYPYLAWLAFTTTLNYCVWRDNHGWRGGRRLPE

Regarding `O=C(c1ccccc1)c1[nH]c2[nH]cnc(=O)c2c1-c1ccccc1`, the figures for the GI50 in data set [1] and in data set [2] were at most 0.01 µM and 0.01 µM, respectively.

Regarding `O=C(NO)C(c1ccccc1)c1c(-c2ccc3ccccc3c2)[nH]c2ccccc12` (stereo not drawn), the GI50 (usually the concentration at which growth is held to half of that of the control) in data set [3] is 21.3 µM; in [4] it was 1.9 µM.

In the case of `Cc1ccc(C(C(=O)NO)c2c(-c3ccc4ccccc4c3)[nH]c3ccccc23)cc1C` (stereo not drawn), the GI50 in data set [3] came to 6.7 µM; in [4] it was 7.5 µM.

As to `O=C1Nc2ccc(NC(=O)[C@H](NC(=O)c3cccn(Cc4ccc(F)c(F)c4)c3=O)c3ccccc3)cc2/C1=C/c1cnc[nH]1`, the IC50 – broadly, the concentration needed to halve the response being measured – in [5] was determined as 0.0497 µM; in data set [6], 0.044 µM.

With `COC(=O)/C=C/c1ccc(/C=C/c2ccc(O)c(O)c2)cc1`, the IC50 in [7] came out at 5.4 µM; in [8], 142 µM.

`O=C1CC(c2ccc(-c3cc[nH]n3)s2)c2cc(N3CCNC3=O)ccc2N1` (stereo not drawn): the figures for the IC50 in data set [9] and in data set [10] were 1.59 µM and 4.11 µM, respectively.

In data set [11], `O=C(NO)c1ccc(Cn2c(=O)n(CCc3ccccc3)c(=O)c3ccccc32)cc1` came in with an IC50 of 1.56 µM.

For `CC(C)(C)OC(=O)N1CC[C@@]2(C(=O)Nc3ccccc32)[C@@H]1c1cccc(Nc2ccc(CO)c(S(C)(=O)=O)c2)c1`, the half-maximal inhibitory concentration (IC50) in data set [12] is 2.23 µM; in data set [13] it was 1.78 µM.

Regarding `CCOC(=O)/C=C/c1ccc(/C=C/c2ccc(O)c(O)c2)cc1`, the 50% inhibitory concentration (IC50) came out at 3.9 µM in data set [7] and 86 µM in data set [8].

As for `CC(C)(C)[Si](O[C@H]1[C@H](O)C[C@](O)(CO)C[C@H]1O[Si](c1ccccc1)(c1ccccc1)C(C)(C)C)(c1ccccc1)c1ccccc1`, the values for the IC50 in data set [14] and in data set [15] were 10.7 µM and 28.2 µM, respectively.

Consider `O=C1Nc2ccccc2C1Cc1ccc2cc[nH]c2c1` (stereo not drawn), for which the figures for the IC50 in data set [9] and in data set [10] were 21.3 µM and 24.7 µM, respectively.

For the compound `NC(=O)CC(c1ccc(NC(=O)c2cccnc2)cc1)c1cccc2[nH]ccc12` (stereo not drawn), the IC50 is 8.65 µM in [9] and 27.3 µM in data set [10].

Consider `O=C(Nc1ccc(Cl)c(C(F)(F)F)c1)c1ccc(Cl)cc1`, for which the IC50 in data set [9] amounted to 2.96 µM; in data set [10], 14.2 µM.

For the compound `COc1cc(NC(C)CCCNC(=O)CCCC(=O)NO)c2ncccc2c1` (stereo not drawn), in data set [16], the IC50 was 10 µM. In addition, in data set [17], the “inhibition (INH)” value came out at 42%.

For the compound `O=C(COc1ccc2c(=O)c(-c3ccccc3)coc2c1)N=c1[nH]c2ccccc2[nH]1`, the IC50 in [9] was 6.58 µM; in data set [10] it was 4.77 µM.

Turning to `C[C@H]1O[C@@H](O[C@H]2CC[C@]3(C=O)[C@H]4CC[C@]5(C)[C@@H](C6CCC(=O)OC6)CC[C@]5(O)[C@@H]4CC[C@]3(O)C2)[C@H](O)[C@@H](O)[C@@H]1O` (stereo partly drawn), the results for the IC50 in [18], in data set [19] and in [20] were 70 µM, 50 µM and 40 µM, respectively.

Consider `CC(C)OC(=O)[C@H](CCC(=O)C=[N+]=[N-])NC(=O)[C@@H](N)Cc1c[nH]c2ccccc12`, for which the Stability worked out at 0% in [21], 10% in data set [22] and 61% in data set [23].

`C[C@@H]1C2CCCC3CC[C@]4(C)OO[C@]32[C@H](O[C@@H]1OCCCN=C=S)O4` (stereo partly drawn): the IC50 in data set [24] amounted to 7.41 µM.

`O=C1c2cc(-c3cccnc3)ncc2C(=O)c2c1c(-c1ccccn1)nn2-c1ccc(F)cc1F`: the IC50 in data set [12], in data set [25] and in data set [26] was 2.5 µM in each case.

`CCn1c(-c2nonc2N)nc2cncc(CNC3CCNCC3)c21`: the inhibition – broadly, the drop in the measured response relative to a control, in per cent – at 10 µM came to 37.8% in data set [27] and 60.4% in data set [28]. Besides, the CC50 is 112 µM in data set [29], 115 µM in data set [30] and 456 µM in [31].

Turning to `Cc1ccc(CN(C)C(=O)c2nc(-c3ccccc3Cl)c3ccccc3n2)cc1`, the Ki – broadly, the equilibrium dissociation constant of an inhibitor or competing ligand from its target – in data set [32] turned out to be 0.00399 µM.

On to `CCOC(=O)[C@H](CCC(=O)C=[N+]=N)NC(=O)OC(C)OC(=O)C(C)(C)C` (stereo partly drawn), for which the solubility (commonly the concentration that dissolves in the medium under given conditions) in data set [33] was above 25 mg/mL.

Turning to `CCOC(=O)[C@H](CCC(=O)C=[N+]=[N-])NC(=O)[C@@H](N)Cc1c[nH]c2ccccc12`, the Stability in data set [21] is reported as 0%; in data set [22], 4%; in data set [23], 12%.

Turning to `O=C1Nc2ccccc2C12CCN[C@@H]2c1ccccc1` (stereo partly drawn), the concentration for half-maximal inhibition (IC50) in data set [9] turned out to be 41.1 µM; in data set [10], 101 µM.

`C[C@@H]1O[C@@H](O[C@H]2CC[C@H](O[C@H]3[C@H](O)C[C@H](c4ccc5c(c4O)C(=O)c4ccc(C[C@](C)(CC(=O)O)O[C@H]6CC[C@H](O[C@H]7CCC(=O)[C@H](C)O7)[C@H](C)O6)c(O)c4C5=O)O[C@@H]3C)O[C@H]2C)CCC1=O` [GRINCAMYCIN B]: the half-inhibitory concentration (IC50) in [34] is 2.04 µM; in [35] it was 3.11 µM.
